Assay results: EP0100734A1, “Process for the separation or purification of a sleep promoting factor from a biological source by immunological reaction of the antigen-antibody kind” (ANVAR Agence Nationale de Valorisation de la Recherche, priority 1982, dated 1984)

Test system: anticorps monoclonaux anti-MDP
Assay: Competitive ELISA: inhibition of binding of MDP-lysine-peroxidase conjugate to captured monoclonal anti-MDP antibody
Set-up: species or system souris
Method: On a recours à la technique antérieurement. décrite dans l'article de BAHR et Coll. déjà mentionné, sous réserve de quelques modifications de détail. Les éléments essentiels de la méthodologie utilisée sont rappelés ci-après.
Les puits de plaques micro-ELISA (commercialisées par la société DYNATECH) sont tapissés avec des fractions Ig d'anticorps de chèvre anti-souris IgM, IgA ou IgG, par maintien en contact avec leurs parois d'une solution contenant 5 ug/ml de la fraction Ig pendant 3 heures à 4°C. Après lavage de la plaque avec une solution de PBS contenant 0,05 % de l'agent de dispersion commercialisé sous la dénomination TWEEN 20, on ajoute des dilutions des surnageants d'hybridomes producteurs d'anticorps anti-MDP aux différents puits et on incube pendant 2 heures à la température ambiante. Les fractions Ig facilitent la retenue des anticorps anti-MDP. Les plaques sont ensuite lavées et une solution de MDP-lysine couplé à de la péroxydase de raifort diluée au 1/1000 est ajoutée aux puits. Les plaques sont ensuite laissées au repos pendant la nuit à 4°C. Après lavage, on détermine les proportions de MDP-lysine-péroxydase fixées dans les puits, en mettant en oeuvre l'ortho-phénylène-diamine et de l'eau oxygénée en tant que substrat de la péroxydase. […]

inhibition (added under the same conditions together with the conjugate, amount not stated)	inhibitions exprimées par des activités (100 µl of MDP solution containing 100 ng, added together with MDP-peroxidase conjugate (1/1000), antibody diluted 1/100 = 100 % activity) [%]	Structure (SMILES)
aucune inhibition	–	CC(=O)N[C@H]1C(O)O[C@H](CO)[C@@H](O)[C@@H]1O[C@H](C)C(=O)N[C@H](C)C(=O)N[C@H](CCC(=O)O)C(N)=O (stereo partly drawn) [MDP-DD, N-acétyl- muramyl- D-alanyl-D-isoglutamine]
–	31	CC(=O)N[C@H]1C(O)O[C@H](CO)[C@@H](O)[C@@H]1O[C@H](C)C(=O)N[C@@H](C)C(=O)N[C@H](CCC(=O)O)C(N)=O (stereo partly drawn) [MDP, M-acétyl-muramyl-L-alanyl-D-isoglutamine]
